Assays:
[1] = target: GST-CBP(1081-1197) bromodomain (Homo sapiens (Human), UniProt Q92793); test: CBP AlphaScreen Assay; details: binding to biotin-H4(1-21) Ac-K5/8/12/16 peptide
Description: (§1) Specific binding of the CBP or BRD4 bromodomain to the acetylated peptide derived from the H4 histone substrate (tetra acetylated H4(1-21) Ac-K5/8/12/16) was measured in absence or presence of inhibitors.
(§2) The standard dose response curves were fitted by Genedata Screener software using the variable-slope model: Signal=Signalnegative control+(SignalDMSO control−Signalnegative control)/(1+(IC50/Dose)^Hill slope).
(§3) Only Signal and Dose in the equation were treated as known values.

BRD4(49-170) bromodomain = BRD4(49-170) bromodomain (Homo sapiens (Human), UniProt O60885); test: BRD4 AlphaScreen Assay; details: binding to biotin-H4(1-21) Ac-K5/8/12/16 peptide
Description: as §1, §2, §3

Sequence of GST-CBP(1081-1197) bromodomain (Q92793 1081-1197): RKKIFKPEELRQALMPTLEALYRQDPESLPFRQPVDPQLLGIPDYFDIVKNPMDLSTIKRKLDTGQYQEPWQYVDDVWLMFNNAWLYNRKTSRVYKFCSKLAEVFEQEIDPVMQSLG

Structure (SMILES)	IC50 [1] [nM]	IC50 (BRD4(49-170) bromodomain) [nM]
CNC(=O)N1CCn2c(C3CC3)nc(-c3cccc4nc(-c5cn(C)nc5C)c(C#N)cc34)c2C1 [Example 98, 1-(3-cyano-2-(1,3-dimethyl-1H-pyrazol-4-yl)quinolin-5-yl)-3-cyclopropyl-N-methyl-5,6-dihydroimidazo[1,5-a]pyrazine-7(8H)-carboxamide]	25	9580
CC(=O)N1CCn2c(C3CC3)nc(N3CCCc4cc(-c5cncc(S(C)(=O)=O)c5)ccc43)c2C1 [Example 107, 1-(3-cyclopropyl-1-(6-(5-(methylsulfonyl)pyridin-3-yl)-3,4-dihydroquinolin-1(2H)-yl)-5,6-dihydroimidazo[1,5-a]pyrazin-7(8H)-yl)ethan-1-one]	510	> 25000
CNC(=O)N1CCn2c(C3CC3)nc(-c3cccc4cc(N5CCOCC5)ncc34)c2C1 [Example 18, 3-cyclopropyl-N-methyl-1-(3-morpholinoisoquinolin-8-yl)-5,6-dihydroimidazo[1,5-a]pyrazine-7(8H)-carboxamide]	50	> 25000
CNC(=O)N1CCn2c(C3CCOCC3)nc(-c3c(F)ccc4cc(C5CCOCC5)ncc34)c2C1 [Example 83, 1-(7-fluoro-3-(tetrahydro-2H-pyran-4-yl)isoquinolin-8-yl)-N-methyl-3-(tetrahydro-2H-pyran-4-yl)-5,6-dihydroimidazo[1,5-a]pyrazine-7(8H)-carboxamide]	16	19400
CNC(=O)N1CCn2c(C3CN(C(C)=O)C3)nc(-c3ccc4c(c3)c(-c3cnn(C)c3)nn4C)c2C1 [Example 9, 3-(1-Acetylazetidin-3-yl)-N-methyl-1-(1-methyl-3-(1-methyl-1H-pyrazol-4-yl)-1H-indazol-5-yl)-5,6-dihydroimidazo[1,5-a]pyrazine-7(8H)-carboxamide]	63	> 10000
CC(=O)N1CCn2c(C3CC3)nc(-c3cnc4c(c3)c(-c3cnn(C)c3)nn4C)c2C1 [Example 26, 1-(3-cyclopropyl-1-(1-methyl-3-(1-methyl-1H-pyrazol-4-yl)-1H-pyrazolo[3,4-b]pyridin-5-yl)-5,6-dihydroimidazo[1,5-a]pyrazin-7(8H)-yl)ethan-1-one]	181	> 25000
CNC(=O)N1CCn2c(C3CC(F)(F)C3)nc(-c3cccc4cc(-c5cn(C)nc5C)ncc34)c2C1 [Example 71, 3-(3,3-difluorocyclobutyl)-1-(3-(1,3-dimethyl-1H-pyrazol-4-yl)isoquinolin-8-yl)-N-methyl-5,6-dihydroimidazo[1,5-a]pyrazine-7(8H)-carboxamide]	38	13400
CNC(=O)N1CCn2c(C3CC3)nc(-c3c[nH]c4cc(-c5cnn(C)c5)ncc34)c2C1 [Example 38, 3-Cyclopropyl-N-methyl-1-(6-(1-methyl-1H-pyrazol-4-yl)-1H-pyrrolo[3,2-c]pyridin-3-yl)-5,6-dihydroimidazo[1,5-a]pyrazine-7(8H)-carboxamide]	32	19800
CNC(=O)N1CCn2c(C3CCC(F)(F)CC3)nc(-c3cccc4cc(N5CCOCC5)ncc34)c2C1 [Example 74, 3-(4,4-difluorocyclohexyl)-N-methyl-1(3-morpholinoisoquinolin-8-yl)-5,6-dihydroimidazo[1,5-a]pyrazine-7(8H)-carboxamide]	4	> 25000
CC(=O)N1CCn2c(C3CN(C(C)=O)C3)nc(-c3ccc4c(c3)c(-c3cnn(C)c3)nn4C)c2C1 [Example 12, 1-(3-(7-Acetyl-1-(1-methyl-3-(1-methyl-1H-pyrazol-4-yl)-1H-indazol-5-yl)-5,6,7,8-tetrahydroimidazo[1,5-a]pyrazin-3-yl)azetidin-1-yl)ethan-1-one]		> 10000
COC(=O)N1CCn2c(C3CCOC3)nc(-c3ccc4c(c3)c(-c3cnn(C)c3)nn4C)c2C1 (centres unmarked) [Example 5, Methyl 1-(1-methyl-3-(1-methyl-1H-pyrazol-4-yl)-1H-indazol-5-yl)-3-(tetrahydrofuran-3-yl)-5,6-dihydroimidazo[1,5-a]pyrazine-7(8H)-carboxylate]		13900

— US11058688B2, “Imidazopiperazine inhibitors of transcription activating proteins” (Board of Regents, The University of Texas System, priority 2018, dated 2021)
